Columns and labels:
endotrophin+-tumors = assay: allografts of Ctrl- and endotrophin+-cancer cells in wild-type hosts, TZD and cisplatin; assay type: in vivo, mouse; conditions: cisplatin 1 mg/kg ip. every 5 days, TZD 20 mg/kg or ND
Method: FIGS. 21A-21F. TZD synergizes cisplatin sensitivity through suppression of endotrophin-mediated EMT, fibrosis and vasculature. FIGS. 21A-21B. Schematic diagram for allografts (FIG. 21A), indicating cancer cells (0.5×10^6 cells/mouse) were isolated from tumors in PyMT (Ctrl) and PyMT/endotrophin (ETP) mice and implanted into wild-type hosts. Host mice were given TZD (20 mg/kg) or ND diet at 10 days before implantation for tumor progression. Cisplatin (1 mg/kg, ip., every 5 days) was administered at 3-weeks post implantation. […] Data represent mean±SD (n=8-9/group). *p=0.05, **p=0.01 and ***p=0.001 Ctrl/ND vs. ETP/ND; ^##p=0.01 and ^###p=0.001 ETP/ND vs. ETP/TZD by unpaired student t-test. FIGS. 21C-21F. Histological analysis of tumors in allografts after cisplatin treatment. […] Vimentin staining quantification (FIG. 21D), showing decreased EMT in both Ctrl- and endotrophin^+-tumors by TZD. ***p<0.0001 and ^###p<0.0001. Quantification of perfused lectin staining (FIG. 21E), showing the increased functional blood vessels in endotrophin^+-tumors was decreased by TZD. *p=0.015, **p=0.001 and ^##p=0.0088. Masson's Trichrome C staining quantification (FIG. 21F), showing increased fibrosis in endotrophin^+-tumors was decreased by TZD. ***p<0.0001 and ^##p=0.0013. […] Statistics (*Ctrl/ND/CIS vs. Ctrl/TZD/CIS or ETP/ND/CIS; ^#ETP/ND/CIS vs. ETP/TZD/CIS) were analyzed by unpaired student t-test. […]

4T1 = 4T1 xenograft in nude mice, cisplatin with 10B6 or IgG; assay type: in vivo; conditions: 28-days; cisplatin 1 mg/kg every 5 days, 10B6 100 μg/mouse once a week
Method: FIGS. 22A-22E. Neutralizing endotrophin activities with monoclonal antibodies sensitizes tumors to cisplatin treatment. FIG. 22A. Pieces of tumors from PyMT mice were implanted into wild-type hosts. Tumor-bearing mice were given cisplatin (1 mg/kg, ip., every 5 days) or PBS, combined with either TZD (20 mg/kg) or anti-endotrophin monoclonal antibodies (100 μg/mouse, once a week) for tumor progression. Tumor volumes were determined by caliper measurements. Data represent mean±SD (n=5/group). *p<0.05, **p<0.01, ***p<0.001 vs. Cisplatin by 2-way ANOVA. FIGS. 22B-22D. 4T1 (0.5×10^6/mouse) cells were xenografted in nude mice and monitored tumor growth (FIG. 22B) and metastasis (FIG. 22C). […] Tumor volumes were determined by caliper measurements. […] Metastatic burden was determined by measuring metastatic lesion area in lung tissues with H&E stains. Quantified data represent mean±SD (n=5/group). **p=0.0007 and *p=0.0209 vs. CIS/10B6 by unpaired student t-test. mRNA levels for EMT markers such as vimentin, snail, slug, twist1, twist2 and S100S4 were determined by RT-qPCR (FIG. 22D). […]
As a last step, therapeutic potential of a previously described endotrophin neutralizing antibody (clone 10B6) on cisplatin sensitivity was determined. […] Tumor regression was monitored for 2-months post implantation. […]

MS-1 cells = assay: in vitro angiogenesis assay (tubule formation on Matrigel); assay type: cell-based, mouse; conditions: 10B6 10 μg/well, 3 hours
Method: FIGS. 17A-17B. Endotrophin effects on endothelial cell migration. FIG. 17A. in vivo Matrigel bioassays were performed as described in FIG. 6J. Matrigel plugs were analyzed by H&E and immunostaining for CD31 (endothelial cell marker). Scale bars: 200 μm (H&E), and 50 μm (CD31). FIG. 17B. in vitro Angiogenesis assay. MS-1 cells (5×10^4 cells/well) were plated in triplicate on the matrigel coated 12-well plates. Tubule formation was assessed 3 hours after incubation with conditioned media derived from H293 or H293-endotrophin overexpressing cells in the presence or absence of 10B6 (10 μg/well). Scale bars: 500 μm.
A total 300 μl/well of growth factor reduced matrigel (BD biosciences) was plated into 12 well plates. MS-1 cells (5×10^4) were seeded and images were acquired 3-4 hours after incubation with the conditioned media indicated.

| Molecule | tumor growth (volume) of endotrophin+-tumors (endotrophin+-tumors) | primary tumor growth of 4T1 (4T1) | vasculature structure (tubule) formation induced by conditioned media from ETP-overexpressing HEK-293T cells (MS-1 cells) |
| --- | --- | --- | --- |
| N.N.[Cl][Pt][Cl] [cisplatin, cis-diammine-dichloro-platinum] | more resistant | barely inhibited | – |
| 10B6: rat anti-mouse endotrophin monoclonal antibody; light chain variable SEQ ID NO: 2, heavy chain variable SEQ ID NO: 4 (antibody, V domains shown) VH: QVQLQQSGPELAKPGSSVKISCKASGYTFTSYEMHWIKQRPGQGLEWIGYIYPESGSTGYNEKFKGKATLTVDKSSPTAYMQLSSLTPDNSAVYFCTRGLRVLGYVMDVWGHGTSVTVSS VL: DVQLTQSPSFLSASVGDRVTINCKASQNINKYLNWYQQKLGEAPKRLIYNTNNLQTGIPSRFSGSASGTDYTLTISSLHPEDFATYFCLQHSSLYTFGAGTKLELK | – | barely inhibited | completely blocked |

— patent US10975142B2, “Endotrophin neutralization and use thereof” (THE BOARD OF REGENTS OF THE UNIVERSITY OF TEXAS SYSTEM, priority 2013, dated 2021)
